Usually IC50 stands for the midpoint of a concentration-inhibition curve.

Results on four molecules are retold here after paper PMC11551755, “Structure-based discovery of first inhibitors targeting the helicase activity of human PIF1” (Nucleic Acids Research, 2024).

This test deals with T1, human UPF1 (hUPF1) helicase (Homo sapiens, UniProt Q92900).
T1 construct: Full-length human UPF1 helicase was expressed and purified as described previously; made in house
T1 sequence (Q92900 1-1129): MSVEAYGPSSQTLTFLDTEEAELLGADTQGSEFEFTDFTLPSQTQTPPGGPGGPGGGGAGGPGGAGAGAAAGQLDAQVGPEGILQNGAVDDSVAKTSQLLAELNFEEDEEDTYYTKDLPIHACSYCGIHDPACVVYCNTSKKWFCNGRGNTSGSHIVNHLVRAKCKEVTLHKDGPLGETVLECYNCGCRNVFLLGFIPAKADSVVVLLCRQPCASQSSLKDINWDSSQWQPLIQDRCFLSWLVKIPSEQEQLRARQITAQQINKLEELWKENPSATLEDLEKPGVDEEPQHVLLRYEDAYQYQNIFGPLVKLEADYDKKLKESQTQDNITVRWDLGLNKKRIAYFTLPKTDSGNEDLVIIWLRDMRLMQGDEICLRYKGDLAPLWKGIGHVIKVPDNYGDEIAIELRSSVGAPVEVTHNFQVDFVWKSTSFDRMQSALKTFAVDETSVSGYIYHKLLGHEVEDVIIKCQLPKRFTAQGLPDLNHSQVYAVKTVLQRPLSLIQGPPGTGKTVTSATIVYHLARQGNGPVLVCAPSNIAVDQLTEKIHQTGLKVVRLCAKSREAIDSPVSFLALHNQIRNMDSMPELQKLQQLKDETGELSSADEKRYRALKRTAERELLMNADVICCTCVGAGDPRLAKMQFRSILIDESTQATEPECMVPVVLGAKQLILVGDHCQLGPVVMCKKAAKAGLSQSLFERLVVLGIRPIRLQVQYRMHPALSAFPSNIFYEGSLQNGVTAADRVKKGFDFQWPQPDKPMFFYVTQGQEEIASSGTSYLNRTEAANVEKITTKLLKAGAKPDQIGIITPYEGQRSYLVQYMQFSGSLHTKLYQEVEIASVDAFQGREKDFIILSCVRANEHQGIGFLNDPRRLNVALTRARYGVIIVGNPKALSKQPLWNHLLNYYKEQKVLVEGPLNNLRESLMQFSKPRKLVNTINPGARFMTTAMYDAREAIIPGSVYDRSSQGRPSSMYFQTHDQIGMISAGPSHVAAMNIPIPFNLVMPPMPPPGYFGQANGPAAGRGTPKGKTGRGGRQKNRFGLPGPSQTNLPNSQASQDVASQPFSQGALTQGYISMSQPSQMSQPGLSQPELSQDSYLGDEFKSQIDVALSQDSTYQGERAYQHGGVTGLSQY
Briefly: helicase assay after pre-incubation of SMI with hUPF1. Conditions: for IC50: 2 h pre-incubation at 22°C with 100 nM hUPF1, then 1:10 dilution into helicase assay, read-out: IC50 for dsDNA unwinding by hUPF1 following pre-incubation. It counts as biochemical. As to the method:
Full-length human UPF1 helicase was expressed and purified as described previously ([36]).
In parallel, IC50 values for inhibition of human UPF1 (hUPF1) helicase activity by the SMIs were also determined under the same conditions. UPF1-like SF1B helicases are the most closely related family of helicases to PIF1, with significant structural and mechanistic similarity ([52]).
Figure 6. SMI IC50 for dsDNA unwinding determined following pre-incubation. SMIs (0.0078–2 mM SMI) were incubated for 2 h at 22°C (100 nM FLhPIF1 or hUPF1) before dilution (1:10) in the standard helicase assay (0.1 nM DNA substrate). For 1D and 6, structures, electrophoresis of FLhPIF1 reaction product and graphs for IC50 value determination are shown. The graphed data include the activity of SMIs towards hUPF1 and IC50 values obtained are given. See Supplementary Figure S14 for the complete data set. TEXT PRINTED IN THE PICTURE: 1D: IC50 (μM): PIF1: 978 ± 221; IC50 (μM): UPF1: N.D. | 6: IC50 (μM): PIF1: 79.4 ± 16; IC50 (μM): UPF1: 1750 ± 426
Supplementary Figure 14. IC50 DNA unwinding determined following 2 hours pre-incubation. […] The assay procedure and reaction conditions for each helicase were identical (see methods, main manuscript). The figure complements main manuscript Figure 6. […] The reason for this is unclear.

Consider `CC(=O)c1ccc(-c2csc(N)n2)cc1` [Compound 2], for which the IC50 was 445 ± 132 µM.

In the case of `N#Cc1ccc(-c2csc(N)n2)cc1` [Compound 5], the IC50 is 289 ± 127 µM.

`Nc1nc(-c2ccc(C(=O)c3ccccc3)cc2)cs1` [Compound 6]: the IC50 came out at 1750 ± 426 µM. Besides, the “fold difference in sensitivity, hUPF1 vs FLhPIF1 IC50” value (2 h pre-incubation) is recorded as around 22 fold. Consider `CC(=O)Nc1ccc(-c2csc(N)n2)cc1C1=CCNCC1` [Compound 11], for which the IC50 was 576 ± 146 µM.
